Reference: patent US20250144067A1, “PERSONALIZED STARVATION THERAPY FOR CANCER” (Faeth Therapeutics, Inc., priority 2021, published 2025)
Structures can show the parent of a compound that is named as a salt. Peptide text beside a SMILES is read from it.

How the values were obtained:
[1] = system: NCI-H292 lung cancer cells; experiment: FDA drug screening, complete media vs cholesterol-free media without statin (TABLE 1); format: cell-based, human
[2] = system: NCI-H292 lung cancer cells; experiment: FDA drug screening, complete media vs cholesterol-free media with simvastatin (TABLE 2); format: cell-based, human; conditions: for Cholesterol-free media + simvastatin (0.04 μM) / Complete Media: NCI-H292 cells
[3] = NCI-H292 cells, cholesterol-free media without statin, FDA drug library screen
[4] = NCI-H292 cells, complete media, FDA drug library screen
[5] = complete vs cholesterol-free media, […]
[6] = FDA drug library screen, cholesterol-free media with simvastatin 0.04 μM
[7] = FDA drug library screen, complete media
[8] = complete media vs cholesterol-free media + simvastatin (0.04 μM), […]
[9] = Complete minus Cholesterol-free, >0 enhanced anti-cancer activity, about 0 neutral, <0 antagonist
[10] = complete media minus cholesterol-free media + simvastatin, >0 enhanced anti-cancer activity, about 0 neutral, <0 antagonist
[11] = NCI-H292 cells, cholesterol-free media without statin
[12] = complete vs cholesterol-free media, greater than 0 enhanced anti-cancer activity, about 0 neutral, below 0 antagonists
[13] = cholesterol-free media with simvastatin 0.04 μM, cell growth value in FDA drug screen
[14] = complete media, cell growth value in FDA drug screen
[15] = Complete minus Cholesterol-free, greater than 0 enhanced anti-cancer activity, about 0 neutral, below 0 antagonists
[16] = NCI-H292 cells in cholesterol-free media without statin
[17] = complete media vs cholesterol-free media + simvastatin (0.04 μM), >0 enhanced anti-cancer activity, about 0 neutral, <0 antagonist
[18] = drug in cholesterol-free media with simvastatin 0.04 μM

Compound	Cholesterol-free [1, 3]	Complete [1, 4]	Cholesterol-free media + simvastatin (0.04 μM) [2, 6]	Complete Media [2, 7]	Difference [1, 9]	Difference [2, 10]	Cholesterol-free [1, 11]	Complete ([1]; NCI-H292 cells, complete media)	Cholesterol-free media + simvastatin (0.04 μM) [2, 13]	Complete Media [2, 14]	Difference [2, 17]	also measured
C[C@@H]1NC(=O)[C@@H]2CCCN2C(=O)[C@H](CC(N)=O)NC(=O)[C@@H]2CSSC[C@H](N)C(=O)N[C@H]3CSSC[C@H](NC1=O)C(=O)N[C@@H]([C@@H](C)O)C(=O)NCC(=O)N[C@H](C(=O)N[C@@H](Cc1ccc(O)cc1)C(=O)O)CSSC[C@H](NC(=O)[C@H](Cc1ccc(O)cc1)NC(=O)[C@H](CCC(=O)O)NC3=O)C(=O)N2 [Linaclotide] (HELM PEPTIDE1{C.C.E.Y.C.C.N.P.A.C.T.G.C.Y}$PEPTIDE1,PEPTIDE1,1:R3-6:R3|PEPTIDE1,PEPTIDE1,2:R3-10:R3|PEPTIDE1,PEPTIDE1,5:R3-13:R3$$$V2.0)	1.326	1.765	0.9562	0.8554	–	–	–	–	–	–	–	Difference [1, 5]: 0.44; Difference [2, 8]: −0.10
OCc1cc(C(O)CNCCCCCCOCCCCc2ccccc2)ccc1O (stereo not shown) [Salmeterol]	0.865	0.8548	0.6428	0.8345	−0.01	0.19	–	–	–	–	–	–
CCC[C@@H]1C[C@@H](C(=O)N[C@@H]([C@H]2O[C@H](SC)[C@H](OP(=O)(O)O)[C@@H](O)[C@H]2O)[C@H](C)Cl)N(C)C1 [Clindamycin (phosphate)]	–	–	–	–	–	0.11	1.342	0.8969	1.017	1.129	–	Difference [1, 12]: −0.44
CC(C)NCC(O)c1ccc(O)c(O)c1 (stereo not shown) [Isoprenaline (hydrochloride)]	–	–	1.496	1.355	–	–	–	–	–	–	−0.14	Difference [1, 15]: −0.50; Cholesterol-free [1, 16]: 1.676
O=C(NC[C@H]1CN(c2ccc(N3CCOCC3=O)cc2)C(=O)O1)c1ccc(Cl)s1 [Rivaroxaban]	–	–	1.199	1.057	−0.30	–	1.076	0.7773	–	–	−0.14	–
CCC(CC)O[C@@H]1C=C(C(=O)O)C[C@H](N)[C@H]1NC(C)=O [Oseltamivir acid]	–	–	–	–	–	0.11	1.419	0.9754	0.944	1.053	–	Difference [1, 12]: −0.44
Cc1ccccc1C(=O)Nc1ccc(C(=O)N2CCCC(N(C)C)c3ccccc32)cc1 (stereo not shown) [Mozavaptan (hydrochloride)]	–	–	–	–	–	0.03	–	–	1.17	1.196	–	Difference [1, 15]: −0.56; Cholesterol-free [1, 16]: 1.248; Complete ([1]; NCI-H292 cells in complete media): 0.6877
Paromomycin (sulfate)	0.541	1.15	–	–	–	–	–	–	–	–	–	Difference [1, 5]: 0.61; Cholesterol-free media + simvastatin (0.04 μM) [2, 18]: 1.383; Complete Media ([2]; drug in complete media): 1.216; Difference [2, 8]: −0.17
Octreotide (acetate)	–	–	–	1.58	–	–	1.157	0.7258	–	–	–	Difference [1, 5]: −0.43; Difference ([2]; complete media minus cholesterol-free media + simvastatin, […]): 0.17
C[C@@H]1CCO[C@H]2Cn3cc(C(=O)NCc4ccc(F)cc4F)c(=O)c(O)c3C(=O)N12 [Dolutegravir (sodium)]	–	–	–	–	−0.20	0.05	0.8373	0.6354	0.4489	0.5012	–	–
CC1(C)O[C@@H]2C[C@H]3[C@@H]4C[C@H](F)C5=CC(=O)C=C[C@]5(C)[C@@]4(F)[C@@H](O)C[C@]3(C)[C@]2(C(=O)CO)O1 [Fluocinolone (Acetonide)]	0.5523	0.5617	–	–	0.01	–	–	–	–	–	−0.18	Cholesterol-free media + simvastatin (0.04 μM) [2, 18]: 0.6444; Complete Media ([2]; drug in complete media): 0.4689
Riboflavin (phosphate sodium)	–	–	1.127	0.9972	–	–	1.308	0.9828	–	–	−0.13	Difference [1, 12]: −0.32
Nc1nnc(-c2cccc(Cl)c2Cl)c(N)n1 [Lamotrigine]	–	–	–	–	–	–	–	–	–	–	−0.34	Difference ([1]; Complete minus Cholesterol-free, greater than 0 enhanced anti-cancer activity, about 0 neutral, below 0 antagonist): −0.08; Cholesterol-free ([1]; NCI-H292 cells, FDA drug library screen, cholesterol-free media without statin): 1.043; Complete ([1]; NCI-H292 cells, FDA drug library screen, complete media): 0.9644; Cholesterol-free media + simvastatin (0.04 μM) ([2]; FDA library drug in cholesterol-free media with simvastatin 0.04 μM): 1.437; Complete Media ([2]; FDA library drug in complete media): 1.093
